Assay [1] has as its target T1, Retinoic acid receptor alpha (Homo sapiens) (UniProt P10276).
T1 sequence (whole entry): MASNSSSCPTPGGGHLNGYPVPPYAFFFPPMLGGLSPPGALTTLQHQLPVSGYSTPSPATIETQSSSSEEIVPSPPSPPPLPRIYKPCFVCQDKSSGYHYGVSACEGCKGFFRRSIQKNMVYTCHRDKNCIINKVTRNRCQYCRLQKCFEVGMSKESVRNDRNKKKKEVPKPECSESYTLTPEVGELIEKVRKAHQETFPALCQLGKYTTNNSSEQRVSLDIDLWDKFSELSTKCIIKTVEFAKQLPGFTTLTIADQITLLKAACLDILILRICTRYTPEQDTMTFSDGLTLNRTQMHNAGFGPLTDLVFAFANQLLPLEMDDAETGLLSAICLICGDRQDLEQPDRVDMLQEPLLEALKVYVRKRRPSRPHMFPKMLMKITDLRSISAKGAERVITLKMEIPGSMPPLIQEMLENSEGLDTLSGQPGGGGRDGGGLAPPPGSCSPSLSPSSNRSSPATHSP
Briefly: Agonist synergy against RAR alpha was tested along with 3 nM TTNPB. The format is functional. Conditions: Cercopithecidae.

Assay [2] concerns the target T2, Retinoic acid receptor RXR-beta (Homo sapiens, UniProt P28702).
T2 sequence (P28702 whole entry): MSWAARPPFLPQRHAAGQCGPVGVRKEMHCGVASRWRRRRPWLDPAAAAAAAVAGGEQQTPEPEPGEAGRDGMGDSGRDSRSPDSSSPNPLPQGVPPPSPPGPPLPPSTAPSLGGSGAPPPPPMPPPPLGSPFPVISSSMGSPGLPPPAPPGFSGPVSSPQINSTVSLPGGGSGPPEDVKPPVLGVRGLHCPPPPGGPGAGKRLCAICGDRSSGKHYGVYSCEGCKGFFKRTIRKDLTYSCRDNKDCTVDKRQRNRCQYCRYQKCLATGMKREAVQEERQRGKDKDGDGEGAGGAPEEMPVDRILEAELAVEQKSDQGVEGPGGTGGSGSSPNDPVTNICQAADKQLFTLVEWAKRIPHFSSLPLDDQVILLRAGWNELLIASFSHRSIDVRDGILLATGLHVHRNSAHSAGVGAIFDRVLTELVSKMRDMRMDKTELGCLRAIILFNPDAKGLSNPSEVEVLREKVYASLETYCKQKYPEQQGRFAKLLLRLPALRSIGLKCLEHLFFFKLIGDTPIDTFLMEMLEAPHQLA
In words: Displacement of [3H]9-cis-RA from RXR beta receptor in CV-1 cells. It counts as cell-based, Cercopithecidae. (Loss of bound radioactivity is the signal in a displacement assay; it reports binding, not function.)

The target in assay [3] is T3, Retinoic acid receptor RXR-gamma (Homo sapiens, UniProt P48443).
T3 sequence (P48443 whole entry): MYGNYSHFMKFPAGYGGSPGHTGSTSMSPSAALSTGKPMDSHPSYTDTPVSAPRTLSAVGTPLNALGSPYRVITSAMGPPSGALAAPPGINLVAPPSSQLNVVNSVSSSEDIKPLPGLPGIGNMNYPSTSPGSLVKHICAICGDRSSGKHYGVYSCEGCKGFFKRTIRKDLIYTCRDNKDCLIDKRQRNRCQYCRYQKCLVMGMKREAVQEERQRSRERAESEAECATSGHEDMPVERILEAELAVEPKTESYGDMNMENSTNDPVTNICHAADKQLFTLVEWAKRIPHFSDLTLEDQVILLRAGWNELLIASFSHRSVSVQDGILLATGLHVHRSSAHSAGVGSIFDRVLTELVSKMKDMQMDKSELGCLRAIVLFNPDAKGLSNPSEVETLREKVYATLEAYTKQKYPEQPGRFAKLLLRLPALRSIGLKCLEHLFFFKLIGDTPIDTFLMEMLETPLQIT
In words: Binding affinity against RXR gamma receptor using [3H]9-cis-RA as radioligand in CV-1 cells. The format is cell-based, Cercopithecidae.

Assay [4] deals with T4, Peroxisome proliferator-activated receptor gamma (Homo sapiens, UniProt P37231).
T4 sequence (P37231 whole entry): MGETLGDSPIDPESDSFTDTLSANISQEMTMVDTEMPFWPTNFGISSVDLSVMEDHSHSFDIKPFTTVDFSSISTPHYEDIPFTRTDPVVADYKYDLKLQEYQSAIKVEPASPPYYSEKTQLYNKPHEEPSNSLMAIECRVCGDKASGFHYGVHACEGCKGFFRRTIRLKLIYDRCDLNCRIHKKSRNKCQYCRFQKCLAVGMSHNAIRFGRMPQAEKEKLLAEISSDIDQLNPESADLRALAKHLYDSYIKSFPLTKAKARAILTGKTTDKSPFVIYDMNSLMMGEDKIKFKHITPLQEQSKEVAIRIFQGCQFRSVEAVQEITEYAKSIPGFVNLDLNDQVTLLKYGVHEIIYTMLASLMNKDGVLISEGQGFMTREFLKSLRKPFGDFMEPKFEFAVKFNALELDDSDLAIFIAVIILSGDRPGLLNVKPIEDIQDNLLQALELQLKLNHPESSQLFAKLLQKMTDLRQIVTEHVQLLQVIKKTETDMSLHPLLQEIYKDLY
Description: In vitro agonist efficacy against PPAR gamma along with 100 nM BRL-49653

In assay [5] the target is T4, Peroxisome proliferator-activated receptor gamma. This is another data set of the same source.
Description: In vitro agonistic activity against PPAR gamma along with 100 nM BRL-49653
The target in assay [6] is T5, Retinoic acid receptor gamma (Homo sapiens, UniProt P13631).
T5 sequence (P13631 whole entry): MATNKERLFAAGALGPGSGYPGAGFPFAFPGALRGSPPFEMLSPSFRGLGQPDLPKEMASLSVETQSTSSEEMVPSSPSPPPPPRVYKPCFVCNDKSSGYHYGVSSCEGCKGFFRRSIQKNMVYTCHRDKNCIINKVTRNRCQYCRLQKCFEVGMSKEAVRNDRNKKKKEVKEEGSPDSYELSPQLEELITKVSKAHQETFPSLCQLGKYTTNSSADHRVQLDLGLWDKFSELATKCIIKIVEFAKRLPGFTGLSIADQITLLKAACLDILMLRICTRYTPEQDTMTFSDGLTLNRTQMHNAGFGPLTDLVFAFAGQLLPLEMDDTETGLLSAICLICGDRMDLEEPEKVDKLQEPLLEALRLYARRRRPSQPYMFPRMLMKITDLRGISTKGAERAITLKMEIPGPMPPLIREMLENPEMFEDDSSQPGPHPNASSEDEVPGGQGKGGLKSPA
Briefly: Binding affinity against RAR gamma receptor using [3H]ATRA as radioligand in CV-1 cells. The format is cell-based, Cercopithecidae.

The target in assay [7] is T6, Retinoic acid receptor beta (Homo sapiens, UniProt P10826).
T6 sequence (P10826 whole entry): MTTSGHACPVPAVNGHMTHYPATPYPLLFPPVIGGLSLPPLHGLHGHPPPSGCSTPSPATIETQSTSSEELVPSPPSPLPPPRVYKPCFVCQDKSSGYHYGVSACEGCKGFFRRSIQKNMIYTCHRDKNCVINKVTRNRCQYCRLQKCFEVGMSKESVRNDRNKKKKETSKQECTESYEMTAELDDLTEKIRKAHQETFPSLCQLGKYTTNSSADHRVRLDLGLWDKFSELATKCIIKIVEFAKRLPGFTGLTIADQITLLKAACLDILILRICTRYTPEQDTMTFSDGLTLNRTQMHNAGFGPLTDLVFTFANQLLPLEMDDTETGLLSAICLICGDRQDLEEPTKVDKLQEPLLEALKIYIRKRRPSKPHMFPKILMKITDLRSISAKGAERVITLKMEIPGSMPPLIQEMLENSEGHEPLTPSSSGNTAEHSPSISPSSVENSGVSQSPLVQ
Briefly: Binding affinity against RAR beta receptor using [3H]ATRA as radioligand in CV-1 cells. The format is cell-based, Cercopithecidae.

For assay [8], the target named is T7, Retinoic acid receptor RXR-alpha (Homo sapiens, UniProt P19793).
T7 sequence (P19793 whole entry): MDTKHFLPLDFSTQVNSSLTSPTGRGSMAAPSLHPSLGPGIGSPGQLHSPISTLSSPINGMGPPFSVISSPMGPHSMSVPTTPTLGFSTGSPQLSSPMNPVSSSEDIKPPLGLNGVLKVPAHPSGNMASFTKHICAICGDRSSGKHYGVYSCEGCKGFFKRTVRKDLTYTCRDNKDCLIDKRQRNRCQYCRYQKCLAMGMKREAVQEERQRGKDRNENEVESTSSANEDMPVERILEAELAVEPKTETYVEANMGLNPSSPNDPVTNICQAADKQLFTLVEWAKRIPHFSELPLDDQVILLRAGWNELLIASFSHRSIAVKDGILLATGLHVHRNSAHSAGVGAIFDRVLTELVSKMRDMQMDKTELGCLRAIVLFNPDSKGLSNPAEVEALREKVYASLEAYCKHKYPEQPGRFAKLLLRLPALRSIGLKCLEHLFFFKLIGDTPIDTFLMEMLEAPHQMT
In words: biochemical.
Description: Binding affinity against RXR alpha receptor using [3H]9-cis-RA as radioligand in CV-1 cells

In assay [9] the target is T7, Retinoic acid receptor RXR-alpha. Briefly: In vitro antagonist activity against RXR alpha in CV-1 cells. It counts as functional, cell-based, Cercopithecidae.
For assay [10], the target named is T8, Retinoic acid receptor alpha (Homo sapiens, UniProt P10276).
T8 sequence (P10276 whole entry): T1 sequence (whole entry)
Briefly: Binding affinity against RAR alpha receptor using [3H]ATRA as radioligand in CV-1 cells. The format is cell-based, Cercopithecidae.

Structures are written as SMILES.

The term Ki denotes a measure of affinity in units of concentration, obtained from inhibition or displacement. A low value points to tighter binding. In general, EC50 refers to the midpoint of the concentration-response curve. Read a low EC50 as a more potent agent. By IC50 is commonly meant the concentration at which inhibition is half-maximal.

With `Cc1cc2c(cc1C1(c3ccc(C(=O)O)cn3)CC1)C(C)(C)CCC2(C)C`, the Synergy in [1] was 6.9 nM. In addition, the results for the Ki in assay [2] and in assay [3] were 75 nM and 12 nM, respectively.

`CC(/C=C/[C@@H]1C[C@]1(C)c1ccc2c(c1)C(C)(C)CCC2(C)C)=C\C(=O)O` [IRX-4204]: the Synergy in assay [1] came out at 1.9 nM. The concentration giving a half-maximal response (EC50) in assay [4] was 54 nM; in assay [5] it was 8.6 nM.

For `C/C(=C/C=C/C(C)=C/C(=O)O)c1cc(-c2ccc(F)cc2)cc(C(C)C)c1OCC(F)F`, the Ki was above 10000 nM in assay [6]; 3.9 nM in assay [2]; 2110 nM in assay [7]; 0.8 nM in [8]; 5.6 nM in assay [3]; 4550 nM in assay [10]. In assay [1], the Synergy was 1.1 nM. Also, the half-maximal effective concentration (EC50) was found to be 32 nM in [4] and 1.3 nM in assay [5]. Besides, 2.2 nM corresponded to half-maximal inhibition in assay [9] (IC50).

For `CC(/C=C/C(F)=C(/C)c1cc(C(C)(C)C)cc(C(C)(C)C)c1OCC(F)(F)F)=C\C(=O)O`, the Ki was above 10000 nM in assay [6]; 15.5 nM in assay [2]; 6010 nM in [7]; 4.1 nM in [8]; 12.4 nM in [3]; 4660 nM in [10]. For the same molecule, in assay [1], the Synergy stood at 1.5 nM. In addition, the figures for the 50% effective concentration (EC50) in assay [4] and in [5] were 30 nM and 12.2 nM, respectively. In addition, in assay [9], 7.2 nM corresponded to half-maximal inhibition (IC50).

Regarding `C/C(=C/C=C/C(C)=C/C(=O)O)c1cc(-c2cccc(F)c2)cc(C(C)C)c1OCC(F)F`, the Ki in assay [6] is above 10000 nM; in assay [2], 7.4 nM; in assay [7], 3600 nM; in assay [8], 1 nM; in assay [3], 2.9 nM; in assay [10], above 10000 nM. Moreover, the Synergy in assay [1] was found to be 1.6 nM. Moreover, the results for the concentration giving a half-maximal response (EC50) in assay [4] and in assay [5] were 36 nM and 0.8 nM, respectively. The molecule also came in with an IC50 in assay [9] of 3.9 nM.

For `CCC(C)(C)c1cc(\C(C)=C(F)/C=C/C(C)=C/C(=O)O)c(OCC(F)F)c(C(C)(C)CC)c1`, the inhibition constant (Ki) is above 10000 nM in assay [6]; 5.2 nM in assay [2]; 5330 nM in assay [7]; 28.7 nM in assay [8]; 40.3 nM in [3]; 6590 nM in [10]. Moreover, in [1], the Synergy came to 1.5 nM. The concentration for a half-maximal effect (EC50) in assay [4] was 51 nM; in [5] it was 2.7 nM. For the same molecule, in [9], half-maximal inhibition (IC50) required 13.7 nM.

As to `C/C(=C/C=C/C(C)=C/C(=O)O)c1cc(C(C)C)cc(-c2ccccc2)c1OCC(F)F`, the inhibition constant (Ki) in [6] was above 10000 nM; in assay [2], 12.3 nM; in assay [7], 2610 nM; in [8], 6.1 nM; in [3], 22.5 nM; in [10], 4660 nM. In assay [1], the Synergy is 1 nM. Also, the values for the concentration giving a half-maximal response (EC50) in [4] and in [5] were 78 nM and 16.3 nM, respectively. In [9], this molecule gave an IC50 of 57.9 nM.

As for `CCCCOc1c(\C(C)=C(F)/C=C/C(C)=C/C(=O)O)cc(C(C)C)cc1C(C)C`, the Ki in assay [6] was above 10000 nM; in assay [2], 24.4 nM; in [7] it was 4620 nM; in assay [8] it was 4.4 nM; in assay [3] it was 27.8 nM; in assay [10], 3730 nM. For the same molecule, in assay [1], the Synergy was determined as 1.5 nM. Further, the results for the concentration for a half-maximal effect (EC50) in assay [4] and in assay [5] were 47 nM and 4.1 nM, respectively. Moreover, the 50% inhibitory concentration (IC50) in assay [9] was 4.7 nM.

For `CCCCOc1c(\C(C)=C/C=C/C(C)=C/C(=O)O)cc(C(F)(F)C(F)(F)F)cc1C(C)C`, the Ki is above 10000 nM in assay [6]; 8.2 nM in [2]; 2270 nM in assay [7]; 21.4 nM in assay [8]; 45.7 nM in assay [3]; 2750 nM in [10]. In addition, the Synergy in [1] worked out at 1.2 nM. In addition, the EC50 in [4] was 71 nM; in assay [5], 7.4 nM. The same molecule showed an IC50 in assay [9] of 4 nM.

For `CCCOc1c(\C(C)=C/C=C/C(C)=C/C(=O)O)cc(C(F)(F)C(F)(F)F)cc1C(C)C`, the Ki in [6] is above 1000 nM; in assay [2], 17.2 nM; in [7] it was 1980 nM; in assay [8] it was 25.6 nM; in [3] it was 27.6 nM; in [10], 2500 nM. In addition, the Synergy in assay [1] was found to be 1.4 nM. The EC50 in assay [4] is 59 nM; in assay [5], 2.7 nM. For the same molecule, in [9], half-maximal inhibition (IC50) was put at 5.1 nM.
